Measured values from paper PMC11012124, “Synthesis of Novel Triazine-Based Chalcones and 8,9-dihydro-7H-pyrimido[4,5-b][1,4]diazepines as Potential Leads in the Search of Anticancer, Antibacterial and Antifungal Agents” (International Journal of Molecular Sciences, 2024).

Key:
[1] = test system: 60 cancer cell lines; test: NCI-60 one-dose screen (10 μM); assay type: cell-based; settings: Homo sapiens; one dose of 10 μM, mean over 60 cancer cell lines; read-out: Mean Growth Percent (MGP)
Source text: Additionally, the mean of the growth percentages (MGP) of each compound against all the 60 cancer cell lines is also reported, which is used as one of the selection criteria to continue with tests at five concentration doses.

[2] = test system: CCRF-CEM; test: cells; settings: Homo sapiens, 48 h; for CC50: read-out: LC50
[3] = test system: HL-60(TB); test: cells; settings: Homo sapiens, HL-60, 48 h; for CC50: read-out: LC50
[4] = test system: K-562; test: cells; settings: Homo sapiens, K562, 48 h; for GI50: K-562, 48 h; for CC50: read-out: LC50
[5] = test system: MOLT-4; test: cells; settings: Homo sapiens, MOLT-4, 48 h; for CC50: read-out: LC50
[6] = test system: RPMI-8226; test: cells; settings: Homo sapiens, RPMI-8226, 48 h; for CC50: read-out: LC50
[7] = test system: A549/ATCC; test: cells; settings: Homo sapiens, A549, 48 h; for CC50: read-out: LC50
[8] = test system: EKVX; test: cells; settings: Homo sapiens, 48 h; for CC50: read-out: LC50
[9] = test system: HOP-92; test: cells; settings: Homo sapiens, HOP-92, 48 h; for CC50: read-out: LC50
[10] = test system: NCI-H226; test: cells; settings: Homo sapiens, NCI-H226, 48 h; for CC50: read-out: LC50
[11] = test system: NCI-H23; test: cells; settings: Homo sapiens, NCI-H23, 48 h; for CC50: read-out: LC50
[12] = test system: NCI-H460; test: cells; settings: Homo sapiens, NCI-H460, 48 h; for CC50: read-out: LC50
[13] = test system: HCC-2998; test: cells; settings: Homo sapiens, HCC 2998, 48 h; for CC50: read-out: LC50
[14] = test system: HCT-116; test: cells; settings: Homo sapiens, HCT-116, 48 h; for CC50: read-out: LC50
[15] = test system: SW-620; test: cells; settings: Homo sapiens, SW-620, 48 h; for CC50: read-out: LC50
[16] = test system: SF-539; test: cells; settings: Homo sapiens, SF-539, 48 h; for CC50: read-out: LC50, SF-539, 48 h
[17] = test system: LOX IMVI; test: cells; settings: Homo sapiens, 48 h; for CC50: read-out: LC50, LOX IMVI, 48 h
[18] = test system: MALME-3M; test: cells; settings: Homo sapiens, 48 h; for CC50: read-out: LC50
[19] = test system: M14; test: cells; settings: Homo sapiens, M14, 48 h; for CC50: read-out: LC50
[20] = test system: MDA-MB-435; test: cells; settings: Homo sapiens, MDA-MB-435, 48 h; for CC50: read-out: LC50
[21] = test system: SK-MEL-28; test: cells; settings: Homo sapiens, SK-MEL-28, 48 h; for CC50: read-out: LC50
[22] = test system: UACC-257; test: cells; settings: Homo sapiens, UACC-257, 48 h; for CC50: read-out: LC50
[23] = test system: IGROV1; test: cells; settings: Homo sapiens, IGROV-1, 48 h; for CC50: read-out: LC50
[24] = test system: OVCAR-5; test: cells; settings: Homo sapiens, OVCAR-5, 48 h; for CC50: read-out: LC50
[25] = test system: OVCAR-8; test: cells; settings: Homo sapiens, OVCAR-8, 48 h; for CC50: read-out: LC50
[26] = test system: SK-OV-3; test: cells; settings: Homo sapiens, SK-OV-3, 48 h; for CC50: read-out: LC50
[27] = test system: A498; test: cells; settings: Homo sapiens, A498, 48 h; for CC50: read-out: LC50
[28] = test system: ACHN; test: cells; settings: Homo sapiens, 48 h; for CC50: read-out: LC50
[29] = test system: RXF 393; test: cells; settings: Homo sapiens, RXF 393, 48 h; for CC50: read-out: LC50
[30] = test system: SN12C; test: cells; settings: Homo sapiens, 48 h; for CC50: read-out: LC50
[31] = test system: TK-10; test: cells; settings: Homo sapiens, TK-10, 48 h; for CC50: read-out: LC50
[32] = test system: PC-3; test: cells; settings: Homo sapiens, PC-3, 48 h; for CC50: read-out: LC50
[33] = test system: MCF7; test: cells; settings: Homo sapiens, MCF7, 48 h; for CC50: read-out: LC50
[34] = test system: MDA-MB-231/ATCC; test: cells; settings: Homo sapiens, MDA-MB-231, 48 h; for CC50: read-out: LC50
[35] = test system: HS 578T; test: cells; settings: Homo sapiens, 48 h; for CC50: read-out: LC50
[36] = test system: BT-549; test: cells; settings: Homo sapiens, BT-549, 48 h; for CC50: read-out: LC50
[37] = test system: SNB-75; test: cells; settings: Homo sapiens, SNB-75, 48 h

CN(C)c1nc(NCCNS(=O)(=O)c2ccc(C(=O)/C=C/c3ccc(F)cc3)cc2)nc(N2CCOCC2)n1 [23f]
activity at 10 µM [1]: 27.6%
GI50 [2]: 6.58 µM
CC50 [2]: > 100 µM
GI50 [3]: 14.7 µM
CC50 [3]: > 100 µM
GI50 [4]: 3.7 µM
CC50 [4]: > 100 µM
GI50 [5]: 4.69 µM
CC50 [5]: > 100 µM
GI50 [6]: 1.91 µM
CC50 [6]: > 100 µM
GI50 [7]: 13.7 µM
CC50 [7]: 56.8 µM
GI50 [8]: 14.4 µM
CC50 [8]: 53.8 µM
GI50 [9]: 12.7 µM
CC50 [9]: 63.5 µM
GI50 [10]: 12.3 µM
CC50 [10]: 64.7 µM
GI50 [11]: 14.6 µM
CC50 [11]: 54.3 µM
GI50 [12]: 15.7 µM
CC50 [12]: 69.4 µM
GI50 [13]: 16 µM
CC50 [13]: 56 µM
GI50 [14]: 2.29 µM
CC50 [14]: 16.8 µM
GI50 [15]: 3.38 µM
CC50 [15]: 40.8 µM
GI50 [16]: 13.2 µM
CC50 [16]: 51.1 µM
GI50 [17]: 1.63 µM
CC50 [17]: 6.19 µM
GI50 [18]: 14.6 µM
CC50 [18]: 54.4 µM
GI50 [19]: 15 µM
CC50 [19]: 62.2 µM
GI50 [20]: 11.6 µM
CC50 [20]: 51.9 µM
GI50 [21]: 14.9 µM
CC50 [21]: 53.4 µM
GI50 [22]: 15.5 µM
CC50 [22]: 54.9 µM
GI50 [23]: 2.27 µM
CC50 [23]: 25.4 µM
GI50 [24]: 13.6 µM
CC50 [24]: 52.6 µM
GI50 [25]: 14.7 µM
CC50 [25]: 54 µM
GI50 [26]: 13.8 µM
CC50 [26]: 55.5 µM
GI50 [27]: 11.9 µM
CC50 [27]: 49.9 µM
GI50 [28]: 13.1 µM
CC50 [28]: 51.4 µM
GI50 [29]: 8.82 µM
CC50 [29]: 46.5 µM
GI50 [30]: 12 µM
CC50 [30]: 50 µM
GI50 [31]: 15.3 µM
CC50 [31]: 53.8 µM
GI50 [32]: 11.2 µM
CC50 [32]: 58.5 µM
GI50 [33]: 2.99 µM
CC50 [33]: 46.7 µM
GI50 [34]: 12.3 µM
CC50 [34]: 51.8 µM
GI50 [35]: 14.6 µM
CC50 [35]: > 100 µM
GI50 [36]: 15.1 µM
CC50 [36]: 56.7 µM

COc1cc(C2CC(c3ccc(Cl)cc3)=Nc3c(N)nc(N)nc3N2)ccc1Oc1nc(Nc2ccc(F)cc2)nc(N(C)C)n1 (stereo not shown) [29e]
activity at 10 µM [1]: 40.9%
CC50 [2]: > 100 µM
GI50 [3]: 44.7 µM
CC50 [3]: > 100 µM
GI50 [4]: 4.5 µM
CC50 [4]: > 100 µM
GI50 [5]: 8.54 µM
CC50 [5]: > 100 µM
GI50 [6]: 26.4 µM
CC50 [6]: > 100 µM
GI50 [7]: > 100 µM
CC50 [7]: > 100 µM
GI50 [8]: > 100 µM
CC50 [8]: > 100 µM
GI50 [9]: 3 µM
CC50 [9]: > 100 µM
GI50 [10]: > 100 µM
CC50 [10]: > 100 µM
GI50 [11]: > 100 µM
CC50 [11]: > 100 µM
GI50 [12]: 42.3 µM
CC50 [12]: > 100 µM
GI50 [13]: 45.3 µM
CC50 [13]: > 100 µM
GI50 [14]: 12.5 µM
CC50 [14]: > 100 µM
GI50 [15]: > 100 µM
CC50 [15]: > 100 µM
GI50 [16]: > 100 µM
CC50 [16]: > 100 µM
GI50 [37]: 3.24 µM
CC50 ([37]; read-out: LC50): > 100 µM
GI50 [17]: 47.8 µM
CC50 [17]: > 100 µM
GI50 [18]: > 100 µM
CC50 [18]: > 100 µM
GI50 [19]: > 100 µM
CC50 [19]: > 100 µM
GI50 [20]: > 100 µM
CC50 [20]: > 100 µM
GI50 [21]: > 100 µM
CC50 [21]: > 100 µM
GI50 [22]: > 100 µM
CC50 [22]: > 100 µM
CC50 [23]: > 100 µM
GI50 [24]: > 100 µM
CC50 [24]: > 100 µM
GI50 [25]: > 100 µM
CC50 [25]: > 100 µM
GI50 [26]: > 100 µM
CC50 [26]: > 100 µM
GI50 [27]: > 100 µM
CC50 [27]: > 100 µM
GI50 [28]: > 100 µM
CC50 [28]: > 100 µM
GI50 [29]: 2.46 µM
CC50 [29]: > 100 µM
GI50 [30]: > 100 µM
CC50 [30]: > 100 µM
GI50 [31]: > 100 µM
CC50 [31]: > 100 µM
GI50 [32]: 6.16 µM
CC50 [32]: > 100 µM
GI50 [33]: 9.9 µM
CC50 [33]: > 100 µM
GI50 [34]: 6.73 µM
CC50 [34]: > 100 µM
GI50 [35]: 84.8 µM
CC50 [35]: > 100 µM
GI50 [36]: 35.5 µM
CC50 [36]: > 100 µM
